The source of these data is patent US10251845B2, “Fatty acid cysteamine conjugates and their use as activators of autophagy” (Catabasis Pharmaceuticals, Inc., priority 2014, dated 2019).

Read-outs that look alike come from different tables or passages of the source.

Data set [1] can be described thus: Plasma and lung tissue drug concentration after oral dosing in mice. In kind it is in vivo. The settings on record: male, C57BL/6, mouse, II-3 100 mg/kg po BID 3.5 days, one hour after the last dose. Here is the method:
In order to evaluate for in vivo autophagy activation, nave male C57BL/6 mice were dosed orally with compound II-3 (100 mg/kg, BID, 3.5 days). One hour after the last dose, lung tissues and plasma were collected to analyze for drug concentration and autophagy biomarkers. As discussed in earlier examples, the ratio of LC3-II to LC3-I was used as autophagy biomarker. When compound II-3 was dosed orally, the parent compound (i.e. II-3) and a major metabolite (i.e. compound I-1) was detected both in the plasma and lung tissues. One hour after the last dose, the plasma concentration of the parent compound II-3 was 143.0±52.35 ng/mL and the corresponding metabolite I-1 was 741.37±170.2 ng/mL. At this time point, the mouse lung tissue concentration of the parent compound II-3 was 536.48±24.01 ng/g. The metabolite I-1 was also detected in the lung tissues, at a concentration of 411.48±164.0 ng/g. Compound II-3 was able to induce autophagy at the given dose of 100 mg/kg and the 22% increase in the ratio of LC3-II to LC3-I in the isolated lung tissues was statistically significant (p=0.04, FIG. 12).

Another data set concerns the target ΔF508 CFTR (Homo sapiens, UniProt P13569, DEL508-508). As to the kind of experiment: Ussing chamber short circuit current in Fisher Rat Thyroid epithelial cells overexpressing ΔF508-CFTR. It is filed as cell-based. On the set-up: expressed in transfected cells; host or cells: Fisher Rat Thyroid (FRT) epithelial cells, stably transfected. The settings on record: FRT cells. Here is the method:
The most prevalent disease causing mutation of the CF transmembrane conductance regulator (CFTR) chloride channel is the deletion of phenylalanine at position 508 in the primary sequence of CFTR (ΔF508-CFTR). This mutation causes a trafficking defect resulting in a severe reduction of ΔF508-CFTR protein at the cell surface. The trafficking defect can be corrected by incubation at low temperature (27° C. overnight) or pharmacologically by small molecules and CFTR correctors. Chloride transport function of Fisher Rat Thyroid (FRT) epithelial cells overexpressing ΔF508-CFTR in monolayers grown on Snapwell™ filter inserts will be monitored as the CFTR agonist evoked short circuit (ISC) current output of an Ussing epithelial voltage clamp apparatus. An objective of this study is to measure the ability of test compounds to restore function to defective ΔF508-CFTR in FRT epithelial cell monolayers.
Measurement of corrector efficacy is divided into two phases. The initial phase is incubation of epithelia with the test compounds for a period of time (that can range from 2 hours to one or two days) in a 37° C. incubator and the second phase is measurement of epithelial ΔF508-CFTR chloride channel current with an epithelial voltage clamp (Ussing assay). The short circuit current (ISC) is measured under short circuit conditions (0 mV transepithelial potential). The ISC magnitude is an index of corrector efficacy and is compared to vehicle and positive control.
Cryopreserved FRT cells stably transfected with ΔF508-CFTR cDNA (Pedemonte et al. (2005) J. CLIN. INVEST., 115, p. 2564-2571) were expanded and plated on Snapwell™ filters for measurement of short circuit current in an Ussing apparatus (Physiologic Instruments, Inc., Sand Diego, Calif.). Cells were grown in Coon's modification of Ham's F-12 media supplemented with zeocin and G-418.
To conduct the assay, a compound of the invention was solubilized as follows: • 1) Prepare 25 mM stock solution in 100% DMSO. • 2) Dilute 12 μL of 25 mM stock solution in 1.20 mL of FBS to make 250 μM intermediate dilution 10× stock (1% DMSO, 99% FBS). Gently vortex all solutions until the solution becomes clear. • 3) Prepare final dilution of 10 μM in 10 mL of Coon's media per well (4 wells×2 mL per well bottom+0.2 mL per insert top=8.8 mL and 1.2 mL reserve for handling losses) by addition of 400 μL of 10× stock and 600 μL of 10× carrier (1% DMSO, 99% FBS) to 9000 μL of Coon's media.
For this example, the test compound was solubilized and added to the appropriate inserts of Ussing chambers (n=4 for each test compound, final test concentration of 10 μM). A DMSO vehicle control and a positive control (VX-809 at 3 μM) were also used. For this particular example, all the test articles, including the positive control, were incubated with the cells for a period of 4 hours. The FRT cell monolayers grown on Snapwell™ filter inserts were transferred to Physiologic Instruments Ussing recording chambers (Physiologic Instruments, Inc., San Diego, Calif.) and superfused with HB-PS on the basolateral side and 78CF-PS on the apical side. One or more 6-channel or 8-channel Physiologic Instruments VCC MC6 or VCC MC8 epithelial voltage clamps were then used in combination to record the short circuit current (ISC) during the entire run. To initiate the ISC measurement, amphotericin (100 μM) was added to the basolateral side of the Snapwell™ filter insert to permeabilize the epithelial cells for 15 min. Forskolin (10 μM), IBMX (100 μM), Genistein (20 μM) and the CFTRinh-172 (20 μM) were added sequentially after the following incubation periods (15 min, 20 min, 10 min, 15 min and 15 min respectively). Data acquisition and analyses were performed using iWorx data acquisition hardware and Labscribe 2 software (iWorx, Dover, N.H.). […]

Setting [2] is: lung tissue, parent II-3 and metabolite I-1, read-out: lung tissue concentration.
[3] abbreviates: plasma, parent II-3 and metabolite I-1, read-out: plasma concentration.
Setting [4] is: II-3 (10 μM)+VX-809 (3 μM)+VX-770 (100 nM), 24 hours, positive control VX-809+VX-770 = 100%.

Chain of ΔF508 CFTR (P13569 with tags, fused parts or gaps DEL508-508): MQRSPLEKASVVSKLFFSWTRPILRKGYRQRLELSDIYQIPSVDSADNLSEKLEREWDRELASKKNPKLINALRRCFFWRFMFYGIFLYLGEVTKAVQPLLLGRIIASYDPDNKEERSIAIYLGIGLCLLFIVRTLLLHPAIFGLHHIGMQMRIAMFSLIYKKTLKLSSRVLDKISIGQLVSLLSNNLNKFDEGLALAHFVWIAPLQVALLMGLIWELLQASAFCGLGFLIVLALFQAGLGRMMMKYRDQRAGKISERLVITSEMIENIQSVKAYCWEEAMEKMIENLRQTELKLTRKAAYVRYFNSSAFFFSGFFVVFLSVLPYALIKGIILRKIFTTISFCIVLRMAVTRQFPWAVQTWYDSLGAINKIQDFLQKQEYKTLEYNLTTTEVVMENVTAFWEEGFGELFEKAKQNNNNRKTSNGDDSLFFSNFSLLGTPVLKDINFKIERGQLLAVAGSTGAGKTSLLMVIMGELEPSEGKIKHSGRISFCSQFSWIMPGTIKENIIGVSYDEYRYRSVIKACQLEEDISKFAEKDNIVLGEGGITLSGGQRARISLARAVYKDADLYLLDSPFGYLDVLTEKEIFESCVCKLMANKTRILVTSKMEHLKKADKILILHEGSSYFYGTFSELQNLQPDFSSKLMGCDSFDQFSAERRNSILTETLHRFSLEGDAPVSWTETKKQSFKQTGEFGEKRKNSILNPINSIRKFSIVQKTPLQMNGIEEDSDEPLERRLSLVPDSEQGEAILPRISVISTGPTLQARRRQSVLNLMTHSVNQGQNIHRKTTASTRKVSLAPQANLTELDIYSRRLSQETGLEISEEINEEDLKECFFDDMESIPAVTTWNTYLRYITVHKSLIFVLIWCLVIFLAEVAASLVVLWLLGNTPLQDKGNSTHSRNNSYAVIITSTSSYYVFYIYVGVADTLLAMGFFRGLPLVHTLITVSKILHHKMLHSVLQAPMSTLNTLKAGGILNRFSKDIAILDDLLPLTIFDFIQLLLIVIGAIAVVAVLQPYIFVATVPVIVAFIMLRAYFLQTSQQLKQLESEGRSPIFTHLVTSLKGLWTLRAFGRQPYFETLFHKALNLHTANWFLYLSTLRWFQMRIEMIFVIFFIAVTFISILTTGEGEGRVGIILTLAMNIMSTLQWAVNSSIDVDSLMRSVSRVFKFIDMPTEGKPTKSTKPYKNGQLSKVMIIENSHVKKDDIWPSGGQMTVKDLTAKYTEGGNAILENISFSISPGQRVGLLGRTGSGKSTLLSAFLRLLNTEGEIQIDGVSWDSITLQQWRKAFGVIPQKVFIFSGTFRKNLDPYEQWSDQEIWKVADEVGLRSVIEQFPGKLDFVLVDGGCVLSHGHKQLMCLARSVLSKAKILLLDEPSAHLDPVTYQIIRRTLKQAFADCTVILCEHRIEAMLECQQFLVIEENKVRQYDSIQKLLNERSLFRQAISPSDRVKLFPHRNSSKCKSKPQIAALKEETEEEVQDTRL

With `CC/C=C\C/C=C\C/C=C\C/C=C\C/C=C\C/C=C\CCC(=O)NCCS` [I-1, (4Z,7Z,10Z,13Z,16Z,19Z)—N-(2-mercaptoethyl)docosa-4,7,10,13,16,19-hexaenamide], the values for the concentration at 1 h in data set [1] (setting [2]) and in data set [1] (setting [3]) were 411 ± 164 ng/g and 741 ± 170 ng/mL, respectively.

For the compound `CC/C=C\C/C=C\C/C=C\C/C=C\C/C=C\C/C=C\CCC(=O)NCCSSC(C)(C)CNC(=O)c1cccnc1` [II-3, N-(2-((2-((4Z,7Z,10Z,13Z,16Z,19Z)-docosa-4,7,10,13,16,19-hexaenamido)ethyl)disulfanyl)-2-methylpropyl)nicotinamide], the concentration at 1 h in data set [1] (setting [2]) amounted to 536 ± 24 ng/g. Further, the concentration at 1 h in data set [1] (setting [3]) was 143 ± 52.4 ng/mL. The “short circuit current trace” value at ΔF508 CFTR (10 μM with VX-770 or VX-809+VX-770, 24 hours) was “functionally active”. The “steady state response upon the addition of Forskolin” value at ΔF508 CFTR (II-3 (10 μM)+VX-770 compared with vehicle+VX-770, 24 hours) is listed as “modest response”. At ΔF508 CFTR (setting [4]), the “steady state response upon the addition of Forskolin, % of control” value amounted to 143.6% and the “steady state response upon the addition of the CFTRinh-172, % of control” value worked out at 144.0%.
